Test results published in patent US7686975B2, “Use of acylcyclohexanedione derivatives for improving the tolerance of plants to cold and/or frost” (BASF Aktiengesellschaft, priority 2003, dated 2010).

Experiments:
Format in all cases: in vivo
apple flowers [1] = assay: Frost damage on apple flowers, simulated frost event
Text: To study the effect of compounds I used in accordance with the invention, flower buds or flowers of various apple varieties were sprayed to run-off point at different stages and different points in time with prohexadione-calcium in the form of the commercial preparation Regalis® from BASF AG in the form of 10% strength granules with 250 ppm of active substance or with a mixture of vitamin E and glycerol (see treatments a) to d)) and subjected to a naturally occurring or simulated frost event during mid-bloom. The treated flowering branches and untreated flowering branches which had been subjected to the same frost event and which acted as control, were subsequently transferred for 2 to 4 days into a greenhouse with temperatures ranging from 15 to 25° C., and the floral injury was assessed. Apple branches with flower buds or flowers (R. Cox) were treated as specified under a.1), b.1), c.1) or d.1) and subsequently subjected to a simulated frost event. Nine days (a.1)) or one day (b.1)-d.1)) after the treatment, the treated flowering branches and untreated control branches were cut off and subjected to a simulated frost event. The temperature program of the simulated frost event was as follows: • chilling from 12° C. to 4° C. within 30 minutes • one hour at 4° C. • chilling from 4° C. to 2° C. within 15 minutes • 75 minutes at 2° C. • chilling from 2° C. to −3° C. within 30 minutes • 150 minutes at −3° C. Two days after the frost event, the floral damage was assessed by examining the individual flowers. At the time of evaluation, the flowers were in the floral stage BBCH 54-56 (BBCH=Biologische Bundesanstalt für Land- und Forstwirtschaft, Bundessortenamt und Chemische Industrie [Federal Biological Institute for Agriculture and Forestry, Federal Office for Crop Plant Varieties, Chemical Industry]). Those flowers whose ovary is brownish in color are considered as damaged (destroyed). The data which represent the percentage of damaged flowers correspond to the mean±standard deviation. A statistically significant difference (critical difference: 5%) between the means of the various measurement series is identified by different letters. Apple branches with flower buds or flowers (R. Cox) were treated analogously to Example 1.1.1, but remained for 210 minutes in the frost chamber at −3° C. Apple branches with flower buds or flowers (Jonagold) were treated analogously to Example 1.1.1. They remained for 150 minutes in the frost chamber at −3° C. At the time of evaluation, the flowers were in floral stage BBCH 56-57. Apple branches with flower buds or flowers (Jonagold) were treated analogously to Example 1.1.3, but remained for 210 minutes in the frost chamber at −3° C. Apple branches with flower buds or flowers (Gala) were treated as described under a.2), b.2), c.2) or d.2) and subsequently subjected to a simulated frost event. 11 days (a.2)) or two days (b.2)-d.2)) after the treatment, the treated flowering branches and untreated control branches were cut off and subjected to a simulated frost event. The temperature program of the simulated frost event corresponded to the one in Example 1.1.1. Four days after the frost event, the floral damage was assessed by examining the individual flowers. At the time of evaluation, the flowers were in floral stage BBCH 57-59. Apple branches with flower buds or flowers (Boskoop) were treated analogously to Example 1.1.5. At the time of evaluation, the flowers were in floral stage BBCH 59-61. They remained at −3° C. for 150 minutes.

apple flowers [2] = assay: Frost damage on apple flowers, naturally occurring frost event
Text: To study the effect of compounds I used in accordance with the invention, flower buds or flowers of various apple varieties were sprayed to run-off point at different stages and different points in time with prohexadione-calcium in the form of the commercial preparation Regalis® from BASF AG in the form of 10% strength granules with 250 ppm of active substance or with a mixture of vitamin E and glycerol (see treatments a) to d)) and subjected to a naturally occurring or simulated frost event during mid-bloom. The treated flowering branches and untreated flowering branches which had been subjected to the same frost event and which acted as control, were subsequently transferred for 2 to 4 days into a greenhouse with temperatures ranging from 15 to 25° C., and the floral injury was assessed. Apple branches with flower buds or flowers (R. Cox) were treated as described under a.3), b.3), c.3) or d.3) and subsequently subjected to a naturally occurring frost event. The frost period lasted 5 days. The lowest temperature was reached on day two of the frost event and was −4° C. One day after the frost event, the treated flowering branches and untreated control branches were cut off. One day after the branches had been cut off, the floral damage was assessed by examining the individual flowers. At the time of evaluation, the flowers were in floral stage BBCH 56-57. Apple branches with flower buds or flowers (Jonagold) were treated analogously to Example 1.2.1 and exposed to the same frost event. At the time of evaluation, the flowers were in floral stage BBCH 57-59. Apple branches with flower buds or flowers (Boskoop) were treated as described under a.4), b.4), c.4) or d.4) and subsequently subjected to a naturally occurring frost event. The frost period lasted for one day. The lowest temperature was −1.2° C. Two days after the frost event, the treated flowering branches and untreated control branches were cut off, and one day after the branches had been cut off, the floral damage was assessed by examining the individual flowers. At the time of evaluation, the flowers were in floral stage BBCH 57-61.

apple seedlings = assay: Photochemical efficacy of electron transport (Fv/Fm, PAM fluorometer) in apple seedlings after simulated frost event; settings: Golden Delicious seedlings
Description: Intact photosynthesis in leaves and other green plant tissues is of utmost importance for frost resistance and the intensity of the subsequent regeneration processes. To study the effect of compounds I which were used in accordance with the invention, the photosynthesis rate of treated (a.5) to (e.5)) and untreated apple seedlings which had been subjected to a simulated frost event was determined.
The material used for the experiments was apple seedlings which had been grown from seeds of Golden Delicious apples following cold stratification under controlled-environment cabinet conditions (temperature approx. 20° C.; relative atmospheric humidity approx. […]; day:night=10.5:13.5 hours; light intensity approx. 200 μmol m^−2 s^−1) and which had three to four fully formed leaves at the point in time of treatment. Batches of 10 plants per combination were treated as follows:
To simulate the frost event, the plants were subjected to the following chill program: • removal from the controlled-environment cabinet (20° C.) • transfer into the chill cell to randomized positions at a height of approximately 40 cm for approx. 6 hours at 12° C. • 2 hours at 4° C. • 1.5 hours at 2° C. • 1 hour at 0° C. • 3.5 hours at −3° C. • controlled-environment cabinet (20° C.)
The photosynthesis rate of the stressed apple seedlings was subsequently determined with the aid of a pulse amplitude modulation fluorometer (PAM 2000, Heinz Walz GmbH, Effeltrich). The quotient Fv/Fm, which is determined, describes the amount of light energy captured by the photosynthesis apparatus of the plants which can be exploited for the production of assimilates. Fv represents the variable fluorescence, which corresponds to the difference between F0 (basal fluorescence, which is measured when a dark-adapted leaf is irradiated with fluorescence-exciting light) and Fm (maximum fluorescence of a dark-adapted leaf) (Fv/Fm=(Fm−F0)/Fm).

## CCC(=O)C1=C([O-])CC(C(=O)[O-])CC1=O.[Ca+2] (centres unmarked) [prohexadione-calcium]
Apple flowers [1]; Boskoop, buds sprayed eleven days prior to simulated frost, prohexadione-calcium 250 ppm, 150 minutes at −3° C., mean±SD
  Percentage of damage to flowers: significantly fewer
Apple flowers [1]; Boskoop; buds sprayed eleven days prior to simulated frost; prohexadione-calcium 250 ppm; 150 minutes at −3° C.; mean±SD; listed as a.2)
  Percentage of damage to flowers: 33.6 ± 4.1%
Apple flowers [1]; Boskoop, flowers (mid-bloom) sprayed two days prior to simulated frost, prohexadione-calcium 250 ppm, 150 minutes at −3° C., mean±SD
  Percentage of damage to flowers: significantly fewer
Apple flowers [1]; Boskoop, flowers (mid-bloom) sprayed two days prior to simulated frost; prohexadione-calcium 250 ppm; 150 minutes at −3° C.; mean±SD; listed as b.2)
  Percentage of damage to flowers: 36.8 ± 4.2%
Apple flowers [1]; Gala, buds sprayed eleven days prior to simulated frost, prohexadione-calcium 250 ppm, 150 minutes at −3° C., assessed four days after frost, mean±SD
  Percentage of damage to flowers: tends to reduce the damage
Apple flowers [1]; Gala; buds sprayed eleven days prior to simulated frost; prohexadione-calcium 250 ppm; 150 minutes at −3° C.; assessed four days after frost; mean±SD; listed as a.2)
  Percentage of damage to flowers: 5.2 ± 1.8%
Apple flowers [1]; Gala, flowers (mid-bloom) sprayed two days prior to simulated frost, prohexadione-calcium 250 ppm, 150 minutes at −3° C., assessed four days after frost, mean±SD
  Percentage of damage to flowers: 8.8 ± 2.5%
Apple flowers [1]; Jonagold, buds sprayed nine days prior to simulated frost, prohexadione-calcium 250 ppm, 150 minutes at −3° C., mean±SD
  Percentage of damage to flowers: significantly fewer
Apple flowers [1]; Jonagold; buds sprayed nine days prior to simulated frost; prohexadione-calcium 250 ppm; 150 minutes at −3° C.; mean±SD; listed as a.1)
  Percentage of damage to flowers: 54.4 ± 3.2%
Apple flowers [1]; Jonagold, buds sprayed nine days prior to simulated frost, prohexadione-calcium 250 ppm, 210 minutes at −3° C., mean±SD
  Percentage of damage to flowers: significantly less damage
Apple flowers [1]; Jonagold; buds sprayed nine days prior to simulated frost; prohexadione-calcium 250 ppm; 210 minutes at −3° C.; mean±SD; listed as a.1)
  Percentage of damage to flowers: 43.8 ± 4.2%
Apple flowers [1]; Jonagold, flowers (mid-bloom) sprayed one day prior to simulated frost, prohexadione-calcium 250 ppm, 150 minutes at −3° C., mean±SD
  Percentage of damage to flowers: 69.0 ± 2.9%
Apple flowers [1]; Jonagold, flowers (mid-bloom) sprayed one day prior to simulated frost, prohexadione-calcium 250 ppm, 210 minutes at −3° C., mean±SD
  Percentage of damage to flowers: significantly less damage
Apple flowers [1]; Jonagold, flowers (mid-bloom) sprayed one day prior to simulated frost; prohexadione-calcium 250 ppm; 210 minutes at −3° C.; mean±SD; listed as b.1)
  Percentage of damage to flowers: 66.0 ± 2.7%
Apple flowers [1]; R. Cox, buds sprayed nine days prior to simulated frost, prohexadione-calcium 250 ppm, 210 minutes at −3° C., mean±SD
  Percentage of damage to flowers: significantly fewer
Apple flowers [1]; R. Cox; buds sprayed nine days prior to simulated frost; prohexadione-calcium 250 ppm; 210 minutes at −3° C.; mean±SD; listed as a.1)
  Percentage of damage to flowers: 6.0 ± 1.2%
Apple flowers [1]; R. Cox, buds sprayed to run-off nine days prior to simulated frost, prohexadione-calcium 250 ppm, 150 minutes at −3° C., assessed two days after frost, mean±SD
  Percentage of damage to flowers: significantly fewer
Apple flowers [1]; R. Cox; buds sprayed to run-off nine days prior to simulated frost; prohexadione-calcium 250 ppm; 150 minutes at −3° C.; assessed two days after frost; mean±SD; listed as a.1)
  Percentage of damage to flowers: 15.6 ± 2.5%
Apple flowers [1]; R. Cox, flowers (mid-bloom) sprayed one day prior to simulated frost, prohexadione-calcium 250 ppm, 210 minutes at −3° C., mean±SD
  Percentage of damage to flowers: 33.3 ± 2.6%
Apple flowers [1]; R. Cox, flowers (mid-bloom) sprayed to run-off one day prior to simulated frost, prohexadione-calcium 250 ppm, 150 minutes at −3° C., assessed two days after frost, mean±SD
  Percentage of damage to flowers: 23.1 ± 2.4%
Apple flowers [2]; Boskoop, buds sprayed thirteen days prior to natural frost, prohexadione-calcium 250 ppm, frost one day, lowest −1.2° C., mean±SD
  Percentage of damage to flowers: 84.3 ± 3.3%
Apple flowers [2]; Boskoop, flowers (mid-bloom) sprayed five days prior to natural frost, prohexadione-calcium 250 ppm, frost one day, lowest −1.2° C., mean±SD
  Percentage of damage to flowers: significantly fewer
Apple flowers [2]; Boskoop, flowers (mid-bloom) sprayed five days prior to natural frost; prohexadione-calcium 250 ppm; frost one day, lowest −1.2° C.; mean±SD; listed as b.4)
  Percentage of damage to flowers: 74.7 ± 3.0%
Apple flowers [2]; Jonagold, buds sprayed ten days prior to natural frost, prohexadione-calcium 250 ppm, frost period 5 days, lowest −4° C., mean±SD
  Percentage of damage to flowers: 67.5 ± 2.3%
Apple flowers [2]; Jonagold, flowers (mid-bloom) sprayed two days prior to natural frost, prohexadione-calcium 250 ppm, frost period 5 days, lowest −4° C., mean±SD
  Percentage of damage to flowers: 67.7 ± 2.6%
Apple flowers [2]; R. Cox, buds sprayed ten days prior to natural frost, prohexadione-calcium 250 ppm, frost period 5 days, lowest −4° C., mean±SD
  Percentage of damage to flowers: reduced floral damage
Apple flowers [2]; R. Cox; buds sprayed ten days prior to natural frost; prohexadione-calcium 250 ppm; frost period 5 days, lowest −4° C.; mean±SD; listed as a.3)
  Percentage of damage to flowers: 88.3 ± 1.3%
Apple flowers [2]; R. Cox, flowers (mid-bloom) sprayed two days prior to natural frost, prohexadione-calcium 250 ppm, frost period 5 days, lowest −4° C., mean±SD
  Percentage of damage to flowers: reduced floral damage
Apple flowers [2]; R. Cox, flowers (mid-bloom) sprayed two days prior to natural frost; prohexadione-calcium 250 ppm; frost period 5 days, lowest −4° C.; mean±SD; listed as b.3)
  Percentage of damage to flowers: 76.6 ± 1.7%
Apple seedlings; sprayed 2 days prior to simulated frost (3.5 hours at −3° C.), prohexadione-calcium 50 ppm, 24 hours after frost
  Fv/Fm: survived the frost event virtually undamaged
Apple seedlings; sprayed 2 days prior to simulated frost (3.5 hours at −3° C.); prohexadione-calcium 50 ppm; 24 hours after frost; listed as c.5)
  Fv/Fm: 0.804
Apple seedlings; sprayed 8 days prior to simulated frost (3.5 hours at −3° C.), 50 ppm prohexadione-calcium, 24 hours after frost
  Fv/Fm: survived the frost event virtually undamaged
Apple seedlings; sprayed 8 days prior to simulated frost (3.5 hours at −3° C.); 50 ppm prohexadione-calcium; 24 hours after frost; listed as b.5)
  Fv/Fm: 0.809
Apple seedlings; sprayed 21 days prior to simulated frost (3.5 hours at −3° C.), 50 ppm prohexadione-calcium, 24 hours after frost
  Fv/Fm: survived the frost event virtually undamaged
Apple seedlings; sprayed 21 days prior to simulated frost (3.5 hours at −3° C.); 50 ppm prohexadione-calcium; 24 hours after frost; listed as a.5)
  Fv/Fm: 0.812
